This note sets out measurements from US8420012B2, “Use of monochlorourea to treat industrial waters” (Hercules Incorporated, priority 2009, dated 2013).

Each structure is given as a SMILES string.

In data set [1] the test system is Pseudomonas aeruginosa. The data set is described as follows: Log10 reduction of viable P. aeruginosa in PBS after exposure to biocide (Example 8). In kind it is cell-based. The following applies: average of three. The procedure: The efficacy of dimethyl monochlorourea (DMCU) as a biocide, as synthesized in Example 5, was tested against the bacterium Pseudomonas aeruginosa. The Hach DPD chlorine test (Hach Company, Loveland, Colo.) was used to measure the total available chlorine concentrations of each biocide tested. Concentrations are reported in units of milligrams per liter as Cl2. P. aeruginosa was grown overnight in Trypticase Soy Broth at 37° C. The culture was split into aliquots of equal volume and suspended in physiologically buffered saline (PBS). […] The cultures were then evaluated by measuring viable cell counts after exposure to the biocides.

The nature of data set [2]: Stability of dimethylchlorourea aqueous solutions at different pH and temperature by UV-Vis Spectroscopy. Format: physicochemical. From the text: The stability of dimethylchlorourea was also examined under a variety of different conditions including pH and temperature. […] In the following table the initial concentration C0, the final concentration Cf, the final time tf and the half life t½, are given.

Data set [3] deals with P. aeruginosa. The experiment in a line: Viability of P. aeruginosa inoculated in paper mill process water, plated after 60 minutes. Format: cell-based, Pseudomonas aeruginosa. Particulars: papermill process water, average of three. Here is the method: Paper mill process water samples were collected from a paper mill producing super calendered paper Samples were inoculated with P. aeruginosa, and then dosed with monochlorourea and sodium hypochlorite and plated after 60 minutes.

Data set [4] in a line: Stability in the presence of chlorine demand (0.1× nutrient broth), total chlorine by Hach DPD. Format: physicochemical. Particulars: 0.1× nutrient broth, initial 5 ppm chlorine, 37° C. The procedure:
This can be seen in Table 4 below. 20 mL aliquots of a 0.1× nutrient broth were used and the active species added such that the initial concentration of each was equivalent to 5 ppm chlorine as measured by the Hach. To prepare the nutrient broth Difco Nutrient Broth (8 grams) was dissolved in 1 L of deionized water, and subsequently diluted to 0.1× of the initial concentration prior to being autoclaved at 121° C. for 15 minutes. 100 mL solutions of each of the actives were made, and the concentration was measured using standard Hach test procedures on a BetzDearborn DR 2010 Spectrophotometer. At each time point a 1:10 dilution of the solution in DI water was made and placed in the spectrophotometer cell. Hach Permachem DPD Total Chlorine Reagent was added and the cell was placed into the spectrophotometer. The ppm of Cl2 was measured at 0, 1, 3, 6, 24, and 48 hours. A fresh dilution was made at each time point, if necessary, and the bottles of solution were placed in a shaking incubator at 37° C. in between runs. Dimethyl monochlorourea is notated as DMCU. Bis-hydroxymethyl chlorourea is BHMCU.

Data set [5] has as its system Pseudomonas aeruginosa. The experiment in a line: Viable cell counts of P. aeruginosa in PBS after 60 minutes exposure to biocide (Example 6). Particulars: average of three. Format: cell-based. The procedure: The efficacy of monochlorourea as a biocide, as synthesized in Example 1, was tested against the bacterium Pseudomonas aeruginosa. The Hach DPD chlorine test (Hach Company, Loveland, Colo.) was used to measure the total available chlorine concentrations of each biocide tested. Concentrations are reported in units of milligrams per liter as Cl2. P. aeruginosa was grown overnight in Trypticase Soy Broth at 37° C. The culture was split into aliquots of equal volume, suspended in physiologically buffered saline (PBS). In this example, the cultures were exposed to […], 5.0 mg/L, 10.0 mg/L, and 15.0 mg/L of biocide for 60 minutes. The cultures were then evaluated by measuring viable cell counts after exposure to the biocides.

Data set [6] is described as follows: Free vs. total chlorine (Hach DPD) of 1000 ppm solutions in synthetic hard water. Format: physicochemical. The following applies: synthetic hard water 250 ppm hardness, 35° C. Here is the method: Differences exist between monochlorourea and sodium hypochlorite, namely, sodium hypochlorite is a free chlorine generating biocide while monochlorourea is not. Free and total chlorine are measured using the DPD reagents from the Hach Company. The test is a colorimetric test in which more intense color development results as more oxidizing chlorine is present in the sample. The rate at which the dye reacts with the oxidizing chemical depends on whether the chlorine is free or bound. Total chlorine includes both free and bound chlorine.
The rate at which the dye reacts with total chlorine is accelerated by the addition of iodide to the test. This differentiates the free and total chlorine. The iodide reacts rapidly with bound oxidizing chlorine to form iodine and chloride. The iodine, a free oxidizing halogen, reacts very rapidly with the DPD dye.
One thousand ppm (as total Cl2) solutions of monochlorourea and sodium hypochlorite were prepared in synthetic hard water with 250 ppm hardness. Total and free chlorine readings were taken at 0 minutes, 30 minutes, 2 hours, and 4 hours. Untreated hard water solutions were used as blanks. The samples were stored at 35° C.+/−2° C. with mild stirring. pH values are provided as a reference points for the conditions of the chlorine species at the various test times.
Table 3 compares duplicate samples of sodium hypochlorite and monochlorourea. Significant differences exist between the free and total chlorine values of these chemicals. The release of free chlorine from monochlorourea is an energetically unfavorable reaction. Monochlorourea is a combined chlorine species that functions to kill bacteria not as a donor of free chlorine, but as a biocide itself.
Made-up 1 Liter sample of synthetic hard water with 250 ppm hardness.
Took 100 mL aliquots and set up duplicate samples of biocides at least 1,000 ppm based on total Chlorine readings.
Monitored pH, free chlorine and total chlorines at timed intervals of—0 min, 30 min, 2 hours, and 4 hours,
Monitored un-treated (blank) hard water at time 0 to serve as baseline.
Between sampling stored all samples in 35° C.+/−2° C. Heater/shaker with mild stirring.

Setting [7] is: Time = 30 min, listed as Bleach-1.
The mark [8] stands for this setting: Time = 30 min, listed as Bleach-2.
The mark [9] stands for this setting: Time = 2 hours, listed as Bleach-1.
Where [10] appears, read: Time = 2 hours, listed as Bleach-2.
The mark [11] stands for this setting: Time = 4 hours, listed as Bleach-1.
Where [12] appears, read: Time = 4 hours, listed as Bleach-2.

`CNC(=O)N(C)Cl` [DMCU, N-chloro-N,N′-dimethylurea]: the figures for the “log10 reduction of viable cfu/mL (LR)” value in data set [1] (0.3 mg/L), in data set [1] (0.9 mg/L) and in data set [1] (1.5 mg/L) were 0.45 log10, 1.49 log10 and 3.99 log10, respectively. Moreover, the “half life t½” value is 4 days in data set [2] (50 ° C., pH 3); 82 days in data set [2] (50 ° C., pH 5); 0.417 days in data set [2] (50 ° C., pH 12); 0.75 days in data set [2] (75 ° C., pH 3); 14 days in data set [2] (75 ° C., pH 7); 0.17 days in data set [2] (75 ° C., pH 12). For the same molecule, the “half life t½” value amounted to 41 days in data set [2] (RT, pH 2); 54 days in data set [2] (RT, pH 3); 84 days in data set [2] (RT, pH 5); 104 days in data set [2] (RT, pH 7); 106 days in data set [2] (RT, pH 9); 2 days in data set [2] (RT, pH 12). Also, the “final concentration Cf” value in data set [2] (50 ° C., pH 3, C0 575 ppm, tf 1 Days) turned out to be 491 ppm; in data set [2] (50 ° C., pH 5, C0 576 ppm, tf 3 Days) it was 561 ppm; in data set [2] (50 ° C., pH 12, C0 478 ppm, tf 6 Hours), 315 ppm; in data set [2] (75 ° C., pH 3, C0 576 ppm, tf 24 Hours), 231 ppm; in data set [2] (75 ° C., pH 7, C0 590 ppm, tf 1 Days) it was 562 ppm; in data set [2] (75 ° C., pH 12, C0 423 ppm, tf 24 Hours) it was 4 ppm. For the same molecule, the “final concentration Cf” value came to 220 ppm in data set [2] (RT, pH 2, C0 393 ppm, tf 34 Days); 402 ppm in data set [2] (RT, pH 3, C0 577 ppm, tf 28 Days); 456 ppm in data set [2] (RT, pH 5, C0 603 ppm, tf 34 Days); 474 ppm in data set [2] (RT, pH 7, C0 590 ppm, tf 33 Days); 475 ppm in data set [2] (RT, pH 9, C0 589 ppm, tf 33 Days); 280 ppm in data set [2] (RT, pH 12, C0 423 ppm, tf 1 Days). For the same molecule, in data set [2] (aqueous solution, acidic and basic conditions at room temperature, read-out: half lives), the half-life lay within 2 to 100 days.
For the molecule `[Na+].[O-]Cl` [NaOCl, Sodium Hypochlorite], the “log10 of viable cfu/mL” value stood at 9.9 log10 cfu/mL in data set [3] (1.0 mg/l), 9.8 log10 cfu/mL in data set [3] (3.0 mg/l), 8.7 log10 cfu/mL in data set [3] (5.0 mg/l) and 4.5 log10 cfu/mL in data set [3] (10.0 mg/l). In addition, the “Stability: total chlorine remaining relative to initial” value in data set [4] (0 hr) amounted to 100%; in data set [4] (3 hrs) it was 22%; in data set [4] (6 hrs), 6%; in data set [4] (24 hrs) it was 2%; in data set [4] (48 hrs) it was 1%. In addition, the “log10 of viable cfu/mL remaining after exposure” value in data set [5] (5.0 mg/L as Cl2, 60 minutes) amounted to 9.7 log10 cfu/mL; in data set [5] (10.0 mg/L as Cl2, 60 minutes), 9.1 log10 cfu/mL; in data set [5] (15.0 mg/L as Cl2, 60 minutes), 4.4 log10 cfu/mL. Besides, the “log10 reduction of viable cfu/mL (LR)” value in data set [1] (1 mg/L) is given as 5.3 log10; in data set [1] (3 mg/L), 5.4 log10; in data set [1] (5 mg/L) it was 6.7 log10. The “Free Cl” value in data set [6] (Time = 0, listed as Bleach-1) is listed as 900 ppm; in data set [6] (Time = 0, listed as Bleach-2), 950 ppm; in data set [6] (setting [7]) it was 860 ppm; in data set [6] (setting [8]) it was 880 ppm; in data set [6] (setting [9]), 810 ppm; in data set [6] (setting [10]), 840 ppm. Moreover, the “Free Cl” value is 840 ppm in data set [6] (setting [11]) and 950 ppm in data set [6] (setting [12]). Also, the “Tot Cl” value is on record as 950 ppm in data set [6] (Time = 0, listed as Bleach-1); 1060 ppm in data set [6] (Time = 0, listed as Bleach-2); 890 ppm in data set [6] (setting [7]); 1020 ppm in data set [6] (setting [8]); 920 ppm in data set [6] (setting [9]); 1010 ppm in data set [6] (setting [10]). Also, the “Tot Cl” value is reported as 940 ppm in data set [6] (setting [11]) and 1040 ppm in data set [6] (setting [12]).
Take `NCl` [monochloramine]: the “Stability: total chlorine remaining relative to initial” value in data set [4] (0 hr) was 100%; in data set [4] (3 hrs), 24%; in data set [4] (6 hrs), 6%; in data set [4] (24 hrs) it was 2%; in data set [4] (48 hrs), 1%.
